# Measured values as given in patent US8344146B2, “Inhibitor of DD-peptidase and its use as antibiotic or anticancer drug” (Narodowy Instytut Zdrowia Publicznego-Panstwowy Zaklad …, priority 2007, dated 2013).
# Key:
# DD-peptidase R39 [1] = target: T1, DD-peptidase R39 (Actinomadura sp., UniProt P39045); test: DD-peptidase R39 activity inhibition (ID50); type: biochemical; conditions: DD-peptidase R39, purified inhibitor; read-out: ID50 (M), molar concentration of inhibitor which inhibits 50% of enzyme activity
# T1 construct: extracellular DD-peptidase R39 produced by Actinomadura sp; R39; gift: Prof; Jean-Maria Ghuysen; host or cells: Actinomadura sp; R39 (natural producer, secreted)
# [2] = test system: Escherichia coli NCTC 8196; test: MIC, serial dilutions on solid media; type: cell-based; conditions: NCTC8196, MH II agar, 16 hours at 35° C., inhibitor fractions purified on ion-exchange column
# Experimental: (§1) The antibacterial activity of the compound in question was determined using serial dilutions on solid media (MIC value determination) and using the spot-diffusion protocol. […] Standard bacterial strains used in the analysis:
# (§2) A Petri dish was loaded with 0.25 ml of the sample in water and topped with MH II agar medium (Muller Hinton II) to 5 ml. The antibiotic concentration was 0.2 mg/ml medium. Additionally, a control without the antibiotic was made containing 5 ml of MH II. Using a densitometer, bacterial suspensions were made in NaCl solution containing 0.5 McF (10^8 CFU/ml), and subsequently dilutions thereof were made.
# (§3) The following dilution series was made: • 10^4 CFU/ml NaCl for strains 6, 7, 8, 9 • 10^5 CFU/ml Nan for strains 1, 2, 3, 4, 5, 10, 11
# (§4) After the medium set, 2 μl of bacterial suspension of each strain was inoculated onto the medium yielding 10^2 CFU/ml for strains 6, 7, 8, 9 and 10^3 CFU/ml for strains 1, 2, 3, 4, 5, 10, 11. Each suspension was loaded onto each plate. the incubation was performed for 16 hours at 35° C.
# [3] = test system: Staphylococcus aureus NCTC 4163; test: MIC, serial dilutions on solid media; type: cell-based; conditions: NCTC4163, MH II agar, 16 hours at 35° C., inhibitor fractions purified on ion-exchange column
# Experimental: as §1, §2, §3, §4
# [4] = test system: Staphylococcus aureus ATCC 6538P; test: MIC, serial dilutions on solid media; type: cell-based; conditions: ATCC6538P, MH II agar, 16 hours at 35° C., inhibitor fractions purified on ion-exchange column
# Experimental: as §1, §2, §3, §4
# [5] = test system: Stenotrophomonas maltophilia ATCC 13637; test: MIC, serial dilutions on solid media; type: cell-based; conditions: ATCC13637, MH II agar, 16 hours at 35° C., inhibitor fractions purified on ion-exchange column
# Experimental: as §1, §2, §3, §4
# [6] = test system: Bordetella bronchiseptica ATCC 4617; test: MIC, serial dilutions on solid media; type: cell-based; conditions: ATCC4617, MH II agar, 16 hours at 35° C., inhibitor fractions purified on ion-exchange column
# Experimental: as §1, §2, §3, §4
# [7] = test system: Klebsiella pneumoniae ATCC 13883; test: MIC, serial dilutions on solid media; type: cell-based; conditions: ATCC13883, MH II agar, 16 hours at 35° C., inhibitor fractions purified on ion-exchange column
# Experimental: as §1, §2, §3, §4
# [8] = test system: Proteus vulgaris NCTC 4635; test: MIC, serial dilutions on solid media; type: cell-based; conditions: NCTC4635, MH II agar, 16 hours at 35° C., inhibitor fractions purified on ion-exchange column
# Experimental: as §1, §2, §3, §4
# [9] = test system: Escherichia coli ATCC 25922; test: MIC, serial dilutions on solid media; type: cell-based; conditions: ATCC25922, MH II agar, 16 hours at 35° C., inhibitor fractions purified on ion-exchange column
# Experimental: as §1, §2, §3, §4
# [10] = test system: Enterococcus faecalis ATCC 29219; test: MIC, serial dilutions on solid media; type: cell-based; conditions: ATCC29219, MH II agar, 16 hours at 35° C., inhibitor fractions purified on ion-exchange column
# Experimental: as §1, §2, §3, §4
# [11] = test system: Acinetobacter baumanii ATCC 19606; test: MIC, serial dilutions on solid media; type: cell-based; conditions: Acinetobacter baumannii, ATCC19606, MH II agar, 16 hours at 35° C., inhibitor fractions purified on ion-exchange column
# Experimental: as §1, §2, §3, §4
# [12] = test system: Burkholderia cepacia ATCC 25416; test: MIC, serial dilutions on solid media; type: cell-based; conditions: ATCC25416, MH II agar, 16 hours at 35° C., inhibitor fractions purified on ion-exchange column
# Experimental: as §1, §2, §3, §4
# [13] = test system: Candida albicans ATCC 10231; test: Antifungal activity analysis, disc on Sabourand medium; type: cell-based; conditions: discs with 1 mg, 35° C. for 24 h; inhibitor fractions following stage 2 of purification
# Experimental: A Petri dish with solid Sabourand medium with 4% glucose was inoculated with a Candida albicans ATCC 10231 suspension, at 0.02 McF density. Tissue discs soaked in the inhibitor solution were then placed on the medium (1 mg). The incubation was performed at 35° C. for 24 h.
# β-lactamase = test: Inhibitor stability in a β-lactamase environment; type: biochemical
# Experimental: Determination of Inhibitor Stability in a β-Lactamase Environment.
# A method of evaluation inhibitor stability was designed using a combination of the above two methods. An initial incubation of the inhibitor with β-lactamase was performed, and then the reagents for determining DD-peptidase activity inhibition were added. The absorbance of the experimental sample was 0.05, whereas for the control sample (DD-peptidase) it was 0.35. […] It is not hydrolysed by β-lactamase.
# [14] = test system: class A β-lactamase (penicillinase, Penase); test: β-lactamase inhibitor activity, nitrocefin method; type: biochemical; conditions: 482 nm, 30 min preincubation at 37° C.
# Experimental: Determination of β-Lactamase Inhibitor Activity Using the Nitrocefin Method (O'Callaghan et al. 1972)^2.
# reagents used in the assay: 0.1 mM nitrocefin solution containing 0.5 mg nitrocefin (Glaxo), 0.5 cm^3 DMSO (Fluka), 9.5 cm^3 0.1 M PBS pH 7.0; class A β-lactamase (penicillinase, Penase, 5×10^6 IU/ml, Bacto).
# 20 mm^3 of the examined inhibitor in 0.1 M PBS pH 7.0 were supplemented with 10 mm^3 β-lactamase, incubated for 30 min. at 37° C. Next, 30 mm^3 of 0.1 mM nitrocefin solution were added, and 430 mm^3 of 0.1M PBS pH 7.0. The samples were incubated for 10 min. at 37° C. and evaluated spectrophotometrically at 482 nm. The molar extinction coefficient was 15000 M^−1·cm^−1.
# [15] = test system: Stenotrophomonas maltophilia ATCC 13637; test: Spot-diffusion method, growth inhibition zones; type: cell-based; conditions: ATCC13637, 0.4 mg inhibitor per disc
# Experimental: (§5) Inhibitor activity was also determined using the spot-diffusion method.
# (§6) The analysis was performed using: Proteus vulgaris NCTC 4635, Bordetella bronchiseptica ATCC 4617, Stenotrophomonas maltophilia ATCC 13637. 24 bacterial cultures were used to make suspensions containing 0.2 McF, which was then diluted 100-fold. 0.1 ml of such a mixture was then placed on a dish with Muller-Hinton medium. Discs containing the examined inhibitor fractions were placed and incubated at 35° C. The determinations were carried out at 15 and 18 hours.
# (§7) The following growth inhibition zones were obtained using 0.4 mg inhibitor per disc: […]
# [16] = test system: Bordetella bronchiseptica ATCC 4617; test: Spot-diffusion method, growth inhibition zones; type: cell-based; conditions: ATCC4617, 0.4 mg inhibitor per disc
# Experimental: as §5, §6, §7
# [17] = test system: Proteus vulgaris NCTC 4635; test: Spot-diffusion method, growth inhibition zones; type: cell-based; conditions: NCTC4635, 0.4 mg inhibitor per disc
# Experimental: as §5, §6, §7
# DD-peptidase R61 [18] = target: T2, DD-peptidase R61 (Streptomyces sp., UniProt P15555); test: Life of the inhibitor-enzyme complex, R61; type: biochemical, Streptomyces sp. R61
# T2 construct: DD-peptidase R61 produced by Streptomyces sp; R61; gift: Prof; Jean-Maria Ghuysen; host or cells: Streptomyces sp; R61 (natural producer)
# Experimental: (§8) The Life of the Inhibitor-Enzyme Complex was Also Determined.
# (§9) The incubation was performed from several to several dozen hours of each enzyme and inhibitor (as described above). Next, the reaction mixture was added, and determinations were performed.
# DD-peptidase R61 [19] = target: T2, DD-peptidase R61; test: DD-peptidase R61 activity inhibition (ID50); type: biochemical; conditions: DD-peptidase R61, purified inhibitor; read-out: ID50 (M), molar concentration of inhibitor which inhibits 50% of enzyme activity
# DD-peptidase R39 [20] = target: T1, DD-peptidase R39; test: Life of the inhibitor-enzyme complex, R39; type: biochemical, Actinomadura sp. R39
# Experimental: as §8, §9
# [21] = Inhibitor characteristics: solubility; type: physicochemical
# Source text: • 1.) Solid yellow in colour. • 2.) Solubility. The inhibitor is soluble in PBS pH 7.2-8.0; soluble in an aqueous environment with low levels of K^+, Na^+. It also dissolves in methanol, DMSO, but degrades in these solvents.
# T2 sequence (P15555 32-380): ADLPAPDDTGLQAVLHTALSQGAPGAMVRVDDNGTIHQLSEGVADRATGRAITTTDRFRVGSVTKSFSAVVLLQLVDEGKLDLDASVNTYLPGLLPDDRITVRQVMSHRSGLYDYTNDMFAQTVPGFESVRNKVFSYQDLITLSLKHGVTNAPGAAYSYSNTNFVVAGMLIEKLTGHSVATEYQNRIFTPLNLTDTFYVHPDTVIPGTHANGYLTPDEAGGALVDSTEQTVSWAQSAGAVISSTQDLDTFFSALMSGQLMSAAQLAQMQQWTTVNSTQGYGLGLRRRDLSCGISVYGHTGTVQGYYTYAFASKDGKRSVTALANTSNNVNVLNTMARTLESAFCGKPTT
# T1 sequence (P39045 50-538): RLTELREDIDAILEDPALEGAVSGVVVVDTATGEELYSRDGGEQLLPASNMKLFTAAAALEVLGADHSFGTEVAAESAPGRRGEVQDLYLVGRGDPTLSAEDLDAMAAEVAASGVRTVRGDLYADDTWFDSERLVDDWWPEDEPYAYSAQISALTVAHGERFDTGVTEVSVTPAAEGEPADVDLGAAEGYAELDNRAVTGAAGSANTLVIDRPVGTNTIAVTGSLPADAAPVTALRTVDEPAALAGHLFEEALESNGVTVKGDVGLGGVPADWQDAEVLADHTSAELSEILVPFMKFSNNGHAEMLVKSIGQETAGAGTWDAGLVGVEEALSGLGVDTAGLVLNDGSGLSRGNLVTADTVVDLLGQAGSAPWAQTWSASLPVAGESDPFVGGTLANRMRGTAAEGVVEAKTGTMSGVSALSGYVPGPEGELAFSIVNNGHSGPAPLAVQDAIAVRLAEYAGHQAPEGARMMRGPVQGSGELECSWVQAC
compound,measurement,setting,value
"O=C1C=C2CC(C(=O)O)NC=C2C=C1O (stereo not drawn) [inhibitor, 7-hydroxy-6-oxo-2,3,4,6-tetrahydroisochinolin-3-carboxylic acid]",IC50,DD-peptidase R39 [1],0.00045 M
same,MIC,[2],> 200 µg/mL
same,MIC,[3],> 200 µg/mL
same,MIC,[4],> 200 µg/mL
same,MIC,[5],200 µg/mL
same,MIC,[6],200 µg/mL
same,MIC,[7],> 200 µg/mL
same,MIC,[8],200 µg/mL
same,MIC,[9],> 200 µg/mL
same,MIC,[10],> 200 µg/mL
same,MIC,[11],> 200 µg/mL
same,MIC,[12],> 200 µg/mL
same,antifungal activity against Candida albicans ATCC 10231,[13],does not exhibit antifungal activity
same,stability of DD-peptidase inhibitory activity in the presence of class A β-lactamase,β-lactamase; 24 h incubation in β-lactamase at room temperature,completely stable
same,stability in a β-lactamase environment,"β-lactamase; initial incubation with β-lactamase, then DD-peptidase 64-575 II inhibition",stable in a β-lactamase environment
same,inhibition of class A β-lactamase,[14],did not inhibit
same,zone of inhibition at 400 µg/disc,[15]; after 15 h,16 mm
same,zone of inhibition at 400 µg/disc,[15]; after 18 h,15 mm
same,zone of inhibition at 400 µg/disc,[16]; after 15 h,19 mm
same,zone of inhibition at 400 µg/disc,[16]; after 18 h,19 mm
same,zone of inhibition at 400 µg/disc,[17]; after 15 h,20 mm
same,zone of inhibition at 400 µg/disc,[17]; after 18 h,19 mm
same,life of the inhibitor-DD-peptidase R 61 complex,DD-peptidase R61 [18],about 33 hours
same,IC50,DD-peptidase R61 [19],0.000675 M
same,life of the inhibitor-DD-peptidase R 39 complex,DD-peptidase R39 [20],3.5 h
same,solubility in PBS pH 7.2-8.0,[21]; PBS pH 7.2-8.0,soluble
same,"solubility in an aqueous environment with low levels of K+, Na+","[21]; aqueous, low levels of K+, Na+",soluble
same,"solubility in ethyl acetate, methylene chloride, chloroform, amyl acetate, acetonitrile","[21]; ethyl acetate, methylene chloride, chloroform, amyl acetate, acetonitrile",not soluble
same,"solubility in methanol, DMSO","[21]; methanol, DMSO",dissolves
same,"stability in methanol, DMSO","[21]; methanol, DMSO",degrades
